Source: patent US9532970B2, “Compositions for anti-inflammatory, antioxidant effects and improved respiratory function by specific histone deacetylase inhibition” (priority 2014, dated 2017)
Like-named read-outs stand apart in the source and are kept apart here.

Tests used:
[1] = target: HDAC-3 (Homo sapiens, UniProt O15379)
[2] = target: HDAC-7 (Homo sapiens, UniProt Q8WUI4); experiment: Binding to metal dependent histone deacetylase enzymes (epigenetic assay services)
[3] = target: HDAC8 (Homo sapiens, UniProt Q9BY41); conditions: FIG. 2
HDAC8, sequence (Q9BY41 whole entry): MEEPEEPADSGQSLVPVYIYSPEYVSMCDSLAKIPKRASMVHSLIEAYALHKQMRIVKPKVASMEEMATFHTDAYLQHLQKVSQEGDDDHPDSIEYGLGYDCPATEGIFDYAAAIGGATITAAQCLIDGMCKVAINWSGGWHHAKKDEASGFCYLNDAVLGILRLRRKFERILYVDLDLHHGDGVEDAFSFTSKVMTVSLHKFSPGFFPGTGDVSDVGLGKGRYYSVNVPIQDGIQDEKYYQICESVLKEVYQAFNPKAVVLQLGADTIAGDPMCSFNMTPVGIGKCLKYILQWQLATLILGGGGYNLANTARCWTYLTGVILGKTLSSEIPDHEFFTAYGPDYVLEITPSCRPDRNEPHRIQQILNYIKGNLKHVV

[4] = system: Horse PBMC
[5] = more subtle than Trichostatin A

HDAC-7, sequence (Q8WUI4 whole entry): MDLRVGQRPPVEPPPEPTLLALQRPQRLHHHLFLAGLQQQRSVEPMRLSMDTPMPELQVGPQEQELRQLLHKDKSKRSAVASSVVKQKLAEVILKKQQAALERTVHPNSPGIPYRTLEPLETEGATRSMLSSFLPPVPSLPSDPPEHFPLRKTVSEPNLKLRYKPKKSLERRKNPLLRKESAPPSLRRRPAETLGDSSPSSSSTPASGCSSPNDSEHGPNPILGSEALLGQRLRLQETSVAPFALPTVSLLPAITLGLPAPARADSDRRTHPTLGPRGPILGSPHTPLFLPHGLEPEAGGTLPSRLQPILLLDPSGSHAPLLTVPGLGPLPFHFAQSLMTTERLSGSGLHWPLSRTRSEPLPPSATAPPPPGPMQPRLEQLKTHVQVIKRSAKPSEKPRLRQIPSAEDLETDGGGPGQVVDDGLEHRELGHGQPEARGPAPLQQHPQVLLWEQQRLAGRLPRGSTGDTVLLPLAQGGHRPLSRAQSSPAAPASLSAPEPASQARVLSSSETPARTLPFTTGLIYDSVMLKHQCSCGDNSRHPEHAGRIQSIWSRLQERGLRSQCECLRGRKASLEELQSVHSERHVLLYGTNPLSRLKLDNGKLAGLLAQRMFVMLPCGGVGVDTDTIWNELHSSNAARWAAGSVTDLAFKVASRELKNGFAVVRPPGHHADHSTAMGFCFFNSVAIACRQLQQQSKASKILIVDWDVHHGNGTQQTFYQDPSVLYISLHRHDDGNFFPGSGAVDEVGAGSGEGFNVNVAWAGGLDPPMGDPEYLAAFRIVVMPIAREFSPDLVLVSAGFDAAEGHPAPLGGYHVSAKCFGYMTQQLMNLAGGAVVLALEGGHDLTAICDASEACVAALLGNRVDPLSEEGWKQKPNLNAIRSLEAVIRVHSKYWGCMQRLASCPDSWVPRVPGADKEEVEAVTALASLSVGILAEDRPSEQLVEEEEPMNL
HDAC-3, sequence (O15379 whole entry, species assumed): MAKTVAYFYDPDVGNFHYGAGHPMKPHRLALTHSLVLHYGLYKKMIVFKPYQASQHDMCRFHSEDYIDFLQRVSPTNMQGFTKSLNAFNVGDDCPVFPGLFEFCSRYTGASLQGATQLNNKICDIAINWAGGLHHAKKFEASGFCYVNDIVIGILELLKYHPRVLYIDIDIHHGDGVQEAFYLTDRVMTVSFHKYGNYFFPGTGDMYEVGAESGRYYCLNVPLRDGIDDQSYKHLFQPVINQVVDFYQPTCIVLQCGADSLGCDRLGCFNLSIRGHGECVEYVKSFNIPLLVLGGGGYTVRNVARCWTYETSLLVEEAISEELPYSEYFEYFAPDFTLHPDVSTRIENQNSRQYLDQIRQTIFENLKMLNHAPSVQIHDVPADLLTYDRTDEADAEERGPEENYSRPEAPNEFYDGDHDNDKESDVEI
HDAC-3, sequence (Q9Y618 395-489 partner limits assumed, species assumed): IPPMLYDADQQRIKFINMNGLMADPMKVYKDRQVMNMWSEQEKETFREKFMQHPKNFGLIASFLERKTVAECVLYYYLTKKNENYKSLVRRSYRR

In the case of `C[S@@+]([O-])CCCCN=C=S` [LSF, (R)-1-Isothiocyanato-4-(methylsulfinyl)butane], the HILLSLOPE ([1]; HDAC-3) is reported as −0.20, the “binding to HDAC 3 (in words)” value [1, 5] is reported as “specific binding” and the HILLSLOPE ([2]; HDAC-7) is reported as −0.41. The IC50 ([2]; HDAC-7) was 5.81 mM, the “binding to HDAC 7 (in words)” value [2, 5] was “specific binding” and the “inhibition of the enzymatic activity of HDAC8” value [3] was “inhibits”. For the same molecule, the “specificity of inhibition, HDAC8 compared to HDAC1” value ([3]; HDAC1 and HDAC8 inhibitor Screening Assay Kits) was “specificity of L-sulforaphane for HDAC8 compared to HDAC1”, the NES ([4]; ENCODE TF target set GM12878RAD21 (r27)) was −3.95 and the NES ([4]; ENCODE TF target set GM12878_RAD21 (r28)) was −3.79. The NES ([4]; ENCODE TF target set GM12878_YY1) was 3.41, the NES ([4]; ENCODE TF target set GM12878_ZBTB33 (r17)) was 3.05 and the NES ([4]; ENCODE TF target set GM12878_ZBTB33 (r21)) was 2.89. The NES ([4]; ENCODE TF target set H1HESC_POL2 (r12)) was 3.34, the NES ([4]; ENCODE TF target set H1HESC_POL2 (r13)) was 3.33 and the NES ([4]; ENCODE TF target set H1NEURONS_NRSF) was 2.84. The NES ([4]; ENCODE TF target set HEPG2_GRP20_FORSKLN) was 3.01, the NES ([4]; ENCODE TF target set HEPG2_ZBTB33 (r11)) was 3.35 and the NES ([4]; ENCODE TF target set HEPG2_ZBTB33 (r14)) was 3.23. For the same molecule, the NES ([4]; ENCODE TF target set K562_KAP1) was 3.04, the NES ([4]; ENCODE TF target set K562_STAT1_IFNA6H) was −4.54 and the NES ([4]; ENCODE TF target set K562_STAT2_IFNA6H) was −4.45. For the same molecule, the NES ([4]; ENCODE TF target set K562_TR4UCD) was 3.13, the NES ([4]; ENCODE TF target set K562_ZBTB33) was 2.78 and the NES ([4]; ENCODE TF target set MCF10AES_STAT3) was −3.75. The NES ([4]; ENCODE TF target set SHSY5Y_GATA3) was 3.13, the NES ([4]; ENCODE TF target set SKNMC_POL2) was 2.91 and the NES ([4]; ENCODE TF target set U2OS_SETDB1) was 2.83. The “expression of CD markers, immunoglobulin containing genes and interleukins” value ([4]; LSF vs control) was “strongly down-regulated”, the “pathways related to interferon signalling, STAT1/2 targets and autoimmune/auto-inflammatory diseases” value ([4]; LSF vs control) was “strongly downregulated” and the NES ([4]; MSigDB gene set ATGTTAA, MIR-302C) was 4.19. The NES ([4]; MSigDB gene set CHEN HOXA5 TARGETS 9HR UP) was 4.3, the NES ([4]; MSigDB gene set CTTGTAT, MIR-381) was 4.1 and the NES ([4]; MSigDB gene set FULCHER INFLAMMATORY RESPONSE LECTIN VS LPS DN) was −5.59. It also gave an NES ([4]; MSigDB gene set GABRIELY MIR21 TARGETS) of 3.8, an NES ([4]; MSigDB gene set GCM DFFA) of 4.6 and an NES ([4]; MSigDB gene set GCM MLL) of 4.08. For the same molecule, the NES ([4]; MSigDB gene set GCM MYST2) was 4.99, the NES ([4]; MSigDB gene set GCM RAB10) was 3.8 and the NES ([4]; MSigDB gene set GCM SUFU) was 4.3. For the same molecule, the NES ([4]; MSigDB gene set GCM UBE2N) was 4.65, the NES ([4]; MSigDB gene set GCM ZNF198) was 4.95 and the NES ([4]; MSigDB gene set GSE10239 NAIVE VS MEMORY CD8 TCELL UP) was 4.2. For the same molecule, the NES ([4]; MSigDB gene set GSE10325 CD4 TCELL VS MYELOID DN) was −6.35, the NES ([4]; MSigDB gene set GSE10325 LUPUS BCELL VS LUPUS MYELOID DN) was −6.47 and the NES ([4]; MSigDB gene set GSE10325 LUPUS CD4 TCELL VS LUPUS MYELOID DN) was −7.15. For the same molecule, the NES ([4]; MSigDB gene set GSE11057 CD4 EFF MEM VS PBMC DN) was −5.63, the NES ([4]; MSigDB gene set GSE13485 CTRL VS DAY3 YF17D VACCINE PBMC DN) was −5.66 and the NES ([4]; MSigDB gene set GSE13485 CTRL VS DAY7 YF17D VACCINE PBMC DN) was −6.96. For the same molecule, the NES ([4]; MSigDB gene set GSE13485 DAY3 VS DAY7 YF17D VACCINE PBMC DN) was −5.63, the NES ([4]; MSigDB gene set GSE13485 DAY7 VS DAY21 YF17D VACCINE PBMC UP) was −5.61 and the NES ([4]; MSigDB gene set GSE22866 NAIVE CD4 TCELL VS MONOCYTE DN) was −5.6. For the same molecule, the NES ([4]; MSigDB gene set GSE24634 IL4 VS CTRL TREATED NAIVE CD4 TCELL DAY5 UP) was −5.8, the NES ([4]; MSigDB gene set GSE24634 TREG VS TCONV POST DAY10 IL4 CONVERSION DN) was −5.97 and the NES ([4]; MSigDB gene set GSE29617 CTRL VS DAY3 TIV FLU VACCINE PBMC 2008 UP) was 4.12. It also gave an NES ([4]; MSigDB gene set GSE29618 BCELL VS MDC DAY7 FLU VACCINE DN) of −5.93, an NES ([4]; MSigDB gene set HAMAI APOPTOSIS VIA TRAIL UP) of 5.42 and an NES ([4]; MSigDB gene set MCLACHLAN DENTAL CARIES UP) of −5.67. For the same molecule, the NES ([4]; MSigDB gene set MEISSNER BRAIN HCP WITH H3K4ME3 AND H3K27ME3) was −5.6, the NES ([4]; MSigDB gene set MILI PSEUDOPODIA HAPTOTAXIS UP) was 4.81 and the NES ([4]; MSigDB gene set MODULE 45) was −5.9. For the same molecule, the NES ([4]; MSigDB gene set MODULE 46) was −6.22, the NES ([4]; MSigDB gene set MODULE 75) was −5.9 and the NES ([4]; MSigDB gene set MODULE 84) was −7.87. The NES ([4]; MSigDB gene set MRNA METABOLIC PROCESS) was 4.19, the NES ([4]; MSigDB gene set REACTOME GENERIC TRANSCRIPTION PATHWAY) was 4.19 and the NES ([4]; MSigDB gene set RNA PROCESSING) was 4.02. For the same molecule, the NES ([4]; MSigDB gene set SHEN SMARCA2 TARGETS UP) was 5.39, the NES ([4]; MSigDB gene set V$NFMUE1 Q6) was 3.98 and the NES ([4]; MSigDB gene set WALLACE PROSTATE CANCER RACE UP) was −5.66. It also gave an NES ([4]; Reactome gene set ACTIVATION OF KAINATE RECEPTORS UPON GLUTAMATE BINDING) of −2.56, an NES ([4]; Reactome gene set ANTIGEN PROCESSING UBIQUITINATION PROTEASOME DEGRADATION) of 2.7 and an NES ([4]; Reactome gene set ASSOCIATION OF TRIC CCT WITH TARGET PROTEINS DURING BIOSYNTHESIS) of 2.62. It also gave an NES ([4]; Reactome gene set CLASS A1 RHODOPSIN LIKE RECEPTORS) of −2.68, an NES ([4]; Reactome gene set CLEAVAGE OF GROWING TRANSCRIPT IN THE TERMINATION REGION) of 3.33 and an NES ([4]; Reactome gene set CYTOKINE SIGNALLING IN IMMUNE SYSTEM) of −2.84. The NES ([4]; Reactome gene set DOWNSTREAM SIGNALING EVENTS OF B CELL RECEPTOR BCR) was 3.12, the NES ([4]; Reactome gene set G ALPHA1213 SIGNALLING EVENTS) was −2.54 and the NES ([4]; Reactome gene set G ALPHA I SIGNALLING EVENTS) was −2.41. The NES ([4]; Reactome gene set G ALPHA SIGNALLING EVENTS) was −2.82, the NES ([4]; Reactome gene set GABA RECEPTOR ACTIVATION) was −2.39 and the NES ([4]; Reactome gene set GENERIC TRANSCRIPTION PATHWAY) was 4.23. For the same molecule, the NES ([4]; Reactome gene set GPCR DOWNSTREAM SIGNALING) was −3.63, the NES ([4]; Reactome gene set GPCR LIGAND BINDING) was −2.67 and the NES ([4]; Reactome gene set HIV LIFE CYCLE) was 2.41. The NES ([4]; Reactome gene set IMMUNOREGULATORY INTERACTIONS BETWEEN A LYMPHOID AND A NON LYMPHOID CELL) was −3.37, the NES ([4]; Reactome gene set INTERFERON ALPHA BETA SIGNALING) was −4 and the NES ([4]; Reactome gene set INTERFERON GAMMA SIGNALING) was −3.9. The NES ([4]; Reactome gene set INTERFERON SIGNALING) was −3.18, the NES ([4]; Reactome gene set LATE PHASE OF HIV LIFE CYCLE) was 2.44 and the NES ([4]; Reactome gene set MHC CLASS II ANTIGEN PRESENTATION) was −2.47. It also gave an NES ([4]; Reactome gene set MRNA 3 END PROCESSING) of 3.5, an NES ([4]; Reactome gene set MRNA PROCESSING) of 3.68 and an NES ([4]; Reactome gene set MRNA SPLICING) of 3.09. For the same molecule, the NES ([4]; Reactome gene set OPIOID SIGNALLING) was −2.55, the NES ([4]; Reactome gene set PEPTIDE CHAIN ELONGATION) was −2.43 and the NES ([4]; Reactome gene set PI3K EVENTS IN ERBB2 SIGNALING) was 2.49. The NES ([4]; Reactome gene set PI3K EVENTS IN ERBB4 SIGNALING) was 2.52, the NES ([4]; Reactome gene set PIP3 ACTIVATES AKT SIGNALING) was 2.48 and the NES ([4]; Reactome gene set PROCESSING OF CAPPED INTRON CONTAINING PRE MRNA) was 3.61. For the same molecule, the NES ([4]; Reactome gene set RECRUITMENT OF MITOTIC CENTROSOME PROTEINS AND COMPLEXES) was 2.55, the NES ([4]; Reactome gene set REGULATION OF MRNA STABILITY BY PROTEINS THAT BIND AU RICH ELEMENTS) was 2.6 and the NES ([4]; Reactome gene set REGULATION OF ORNITHINE DECARBOXYLASE ODC) was 2.45. The NES ([4]; Reactome gene set RESPIRATORY ELECTRON TRANSPORT ATP SYNTHESIS BY CHEMIOSMOTIC COUPLING AND HEAT PRODUCTION BY UNCOULPLING PROTEINS) was −2.69, the NES ([4]; Reactome gene set RNA POL II TRANSCRIPTION) was 3.32 and the NES ([4]; Reactome gene set SIGNALING BY GPCR) was −3.35. The NES ([4]; Reactome gene set SIGNALING BY RHO GTPASES) was −2.87, the NES ([4]; Reactome gene set TCA CYCLE AND RESPIRATORY ELECTRON TRANSPORT) was −2.8 and the NES ([4]; Reactome gene set TRANSCRIPTION) was 3.25. The NES ([4]; Reactome gene set TRANSPORT OF MATURE TRANSCRIPT TO CYTOPLASM) was 3.02.
